Laboratory results from ChEMBL document CHEMBL1201862, “PubChem BioAssay data set” (2004).
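Values below derive from 48-hour exposures of cells grown in 96-well plates, with endpoints linearly interpolated between the two concentrations bracketing the appropriate inhibition level. GI50: concentration for 50% inhibition of growth.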 The source made the active and inactive calls. No stated cut-off is given here; in the data, active = GI50 up to about 1.1 µM and inactive = higher.

Tests used:
Assay in all cases: NCI-60 cell line screen, 48 h
K562 = tested on: K562
SK-OV-3 = tested on: SK-OV-3
SNB-19 = tested on: SNB-19
HOP-92 = tested on: HOP-92
M14 = tested on: M14
SNB-75 = tested on: SNB-75
NCI-H226 = tested on: NCI-H226
CCRF-CEM = tested on: CCRF-CEM
MCF7 = tested on: MCF7
RXF 631 = tested on: RXF 631
MDA-MB-435 = tested on: MDA-MB-435
MDA-N = tested on: MDA-N
SNB-78 = tested on: SNB-78
HCT-116 = tested on: HCT-116
DLD-1 = tested on: DLD-1
ACHN = tested on: ACHN
HT-29 = tested on: HT-29
HCC 2998 = tested on: HCC 2998
SK-MEL-2 = tested on: SK-MEL-2
NCI-H23 = tested on: NCI-H23
Hs-578T = tested on: Hs-578T
SF-539 = tested on: SF-539
SK-MEL-28 = tested on: SK-MEL-28
EKVX = tested on: EKVX
BT-549 = tested on: BT-549
NCI-H522 = tested on: NCI-H522
HOP-18 = tested on: HOP-18
T47D = tested on: T47D
PC-3 = tested on: PC-3
TK-10 = tested on: TK-10
UO-31 = tested on: UO-31
NCI-H460 = tested on: NCI-H460
MDA-MB-231 = tested on: MDA-MB-231
SW-620 = tested on: SW-620
UACC-62 = tested on: UACC-62
CAKI-1 = tested on: CAKI-1
DMS-273 = tested on: DMS-273
MOLT-4 = tested on: MOLT-4
RPMI-8226 = tested on: RPMI-8226
SF-268 = tested on: SF-268
SK-MEL-5 = tested on: SK-MEL-5
OVCAR-8 = tested on: OVCAR-8
OVCAR-4 = tested on: OVCAR-4
A549 = tested on: A549
SR = tested on: SR
HCT-15 = tested on: HCT-15
DU-145 = tested on: DU-145
OVCAR-5 = tested on: OVCAR-5
UACC-257 = tested on: UACC-257
M19-MEL = tested on: M19-MEL
786-0 = tested on: 786-0
KM-20L2 = tested on: KM-20L2
XF498 = tested on: XF498
Malme-3M = tested on: Malme-3M
LOX IMVI = tested on: LOX IMVI
SF-295 = tested on: SF-295
U-251 = tested on: U-251
RXF 393 = tested on: RXF 393
IGROV-1 = tested on: IGROV-1
DMS-114 = tested on: DMS-114
SN12C = tested on: SN12C
LXFL 529 = tested on: LXFL 529
COLO 205 = tested on: COLO 205
A498 = tested on: A498
KM12 = tested on: KM12

SMILES: Nc1ncnc2c(C3OC(CO)C(O)C3O)c[nH]c12 (stereo not given)
- GI50 (K562): 2.38 nM (active)
- GI50 (SK-OV-3): 0.552 nM (active)
- GI50 (SNB-19): 13.1 nM (active)
- GI50 (HOP-92): < 15 nM (active)
- GI50 (M14): 12.3 nM (active)
- GI50 (SNB-75): 3.28 nM (active)
- GI50 (NCI-H226): < 13.8 nM (active)
- GI50 (CCRF-CEM): 2.24 nM (active)
- GI50 (MCF7): 15.2 nM (active)
- GI50 (RXF 631): 7.76 nM (active)
- GI50 (MDA-MB-435): 31.4 nM (active)
- GI50 (MDA-N): 13.1 nM (active)
- GI50 (SNB-78): 10 nM (active)
- GI50 (HCT-116): 10 nM (active)
- GI50 (DLD-1): 0.728 nM (active)
- GI50 (ACHN): 1.25 nM (active)
- GI50 (HT-29): 5.6 nM (active)
- GI50 (HCC 2998): 6.21 nM (active)
- GI50 (SK-MEL-2): 10 nM (active)
- GI50 (NCI-H23): 13.1 nM (active)
- GI50 (Hs-578T): 1.29 nM (active)
- GI50 (SF-539): 8.13 nM (active)
- GI50 (SK-MEL-28): < 21.8 nM (active)
- GI50 (EKVX): 14.4 nM (active)
- GI50 (BT-549): 13.8 nM (active)
- GI50 (NCI-H522): 6.14 nM (active)
- GI50 (HOP-18): 8.09 nM (active)
- GI50 (T47D): 4.05 nM (active)
- GI50 (PC-3): 5.15 nM (active)
- GI50 (TK-10): 70.5 nM (active)
- GI50 (UO-31): 4.26 nM (active)
- GI50 (NCI-H460): 2.69 nM (active)
- GI50 (MDA-MB-231): 7.8 nM (active)
- GI50 (SW-620): 1.95 nM (active)
- GI50 (UACC-62): 7.18 nM (active)
- GI50 (CAKI-1): 3.06 nM (active)
- GI50 (DMS-273): 10 nM (active)
- GI50 (MOLT-4): 3.36 nM (active)
- GI50 (RPMI-8226): 2.56 nM (active)
- GI50 (SF-268): 10 nM (active)
- GI50 (SK-MEL-5): 5.64 nM (active)
- GI50 (OVCAR-8): 2.27 nM (active)
- GI50 (OVCAR-4): 14.6 nM (active)
- GI50 (A549): 3.99 nM (active)
- GI50 (SR): 2.98 nM (active)
- GI50 (HCT-15): 3.72 nM
- GI50 (DU-145): 6 nM (active)
- GI50 (OVCAR-5): 8.04 nM (active)
- GI50 (UACC-257): 18.5 nM (active)
- GI50 (M19-MEL): 13.9 nM (active)
- GI50 (786-0): 3.17 nM (active)
- GI50 (KM-20L2): 2.76 nM (active)
- GI50 (XF498): 8.81 nM (active)
- GI50 (Malme-3M): < 13.5 nM (active)
- GI50 (LOX IMVI): 2.82 nM (active)
- GI50 (SF-295): 10 nM (active)
- GI50 (U-251): 8.47 nM (active)
- GI50 (RXF 393): 3.01 nM (active)
- GI50 (IGROV-1): 4.22 nM (active)
- GI50 (DMS-114): 4.21 nM (active)
- GI50 (SN12C): 3.77 nM (active)
- GI50 (LXFL 529): 4.82 nM (active)
- GI50 (COLO 205): 10 nM (active)
- GI50 (A498): 21.3 nM (active)
- GI50 (KM12): 5.33 nM (active)
